Measured values taken from US5232685A, “Nonionic x-ray contrast medium with high iodine content” (Schering Aktiengesellschaft, priority 1989, dated 1993).

Key:
Water solubility = type: physicochemical; conditions: in words
mouse = assay: LD50 mouse i.v.; type: in vivo
Chemical stability = type: physicochemical; conditions: in words
Renal excretion = type: in vivo; conditions: in words
[1] = Osmolality of contrast medium solutions; type: physicochemical
[2] = Viscosity of contrast medium solutions; type: physicochemical; conditions: for Viscosity: 37° C.

| SMILES | LD50 (mouse) [g I/kg] | Osmolality ([1]; 370 mg I/ml (37° C.)) [mosm/kg H2 O] | Viscosity ([2]; 370 mg I/ml) [cP] | Osmolality ([1]; 350 mg I/ml (*) (37° C.)) [mosm/kg H2 O] | Viscosity ([2]; 350 mg I/ml (*)) [cP] | further results |
| --- | --- | --- | --- | --- | --- | --- |
| CN(CC(O)CO)C(=O)c1c(I)c(NC(=O)CO)c(I)c(C(=O)NCCO)c1I (stereo not shown) [Example 1, 5-Hydroxyacetamido-2,4,6-triido-isophthalic acid-(2,3-dihydroxy-N-methyl-propyl)-(2-hydroxy-ethyl)-diamide] | 18 | 590 | 6.6 |  |  | Water solubility (Water solubility): very water-soluble; Chemical stability (Chemical stability): good chemical stability; Renal excretion (Renal excretion): very quick, selective renal excretion; Improvement of osmolality value ([1]; in comparison with iopromide): 23.4%; Improvement of viscosity value ([2]; in comparison with iopromide): 30.5% |
| CC(=O)N(CC(O)CO)c1c(I)c(C(=O)NCCO)c(I)c(C(=O)NCC(O)CO)c1I (stereo not shown) [Ioxilan] | 15 |  |  | 700 | 8.1 | Greatest improvement of viscosity within the previously known five contrast media ([2]; Iohexol/Ioxilan (Ioxilan versus Iohexol)): 22.9% |
| C[C@H](O)C(=O)Nc1c(I)c(C(=O)NC(CO)CO)c(I)c(C(=O)NC(CO)CO)c1I [Iopamidol] | 15 | 830 | 9.4 |  |  |  |
| CC(=O)N(CC(O)CO)c1c(I)c(C(=O)NCC(O)CO)c(I)c(C(=O)NCC(O)CO)c1I (stereo not shown) [Iohexol] | 15 |  |  | 820 | 10.5 |  |
| COCC(=O)Nc1c(I)c(C(=O)NCC(O)CO)c(I)c(C(=O)N(C)CC(O)CO)c1I (stereo not shown) [Iopromide] | 15 | 770 | 9.5 |  |  |  |
| CN(C(=O)CO)c1c(I)c(C(=O)NCC(O)CO)c(I)c(C(=O)NCC(O)CO)c1I (stereo not shown) [Iomeprol] | 14 | 680 | 8.6 |  |  | Greatest improvement of osmolality within the previously known five contrast media ([1]; Iopamidol/Iomeprol (Iomeprol versus Iopamidol)): 18.1% |
